{
  "source": "patent US9737493B2",
  "about": "“Compositions and methods for modulating DNMT1 inhibitor activity” (University of Louisville Research Foundation, Inc., priority 2012, dated 2017)",
  "format_in_all_cases": "cell-based, human",
  "key": {"A549 cells [1]": {"system": "A549 cells", "test": "Trypan blue exclusion assay", "conditions": "A549, 2 μM, 72 h", "protocol": "FIG. 3: XB05 Induces Apoptotic and Nonapoptotic Cell Death in Malignant Cell Lines. (A) Trypan blue exclusion assay for three human cell lines following treatment with XB05 for 72 h at the concentrations indicated. Data points represent the mean+/−SEM for three independent experiments. (B) Representative phase contrast microscopy images of cells treated with vehicle (72 h), XB05 (72 h with 1 μM for U937 and Hs27, or 2 μM for A549), or 6 μg/mL camptothecin (U937 for 6 h, A549 and Hs27 for 48 h). Cells undergoing apoptotic (black arrows) or non-apoptotic (white arrows) cell death are indicated. (C) Whole cell extracts from cells treated with vehicle, camptothecin, or XB05, as described in part B were western blotted for biochemical markers of apoptosis and GAPDH (loading control). Apoptosis is indicated by cleavage of full-length PARP-1 (116 kDa) to an 89 kDa fragment, and by appearance of bands (17 kDa, 19 kDa) recognized by an antibody specific to cleaved (activated) forms of caspase-3. (D) Flow cytometric analysis of annexin V-FITC/propidium Iodide (PI) staining for malignant cells treated with vehicle, camptothecin or XB05 as described in part B, in the presence or absence of the pan-caspase inhibitor Z-VAD-fmk (100 μM).\nAfter 72 h, cells were trypsinized (in the case of adherent cells), stained with trypan blue solution (0.4%) (BioRad, Hercules Calif.) and cell number and percent viability determined on a TC10 automated cell counter (BioRad) using triplicate measurements for each sample. Phase contrast microscopy images were obtained on an EVOSfI digital inverted microscope (Advanced Microscopy Group, Bothell, Wash.)."}, "A549 cells [2]": {"system": "A549 cells", "test": "MitoSOX Red mitochondrial superoxide, flow cytometry", "conditions": "A549, 2 μM, 8 h", "protocol": "(§1) FIG. 7: XB05 Induces ROS. (A) Cells were treated with either vehicle, tert-butyl hydrogen peroxide (TBHP, 100 μM, 3 h) or XB05 (8 h with 1 μM for U937 and Hs27, or 2 μM for A549), then stained with carboxy-H2DCFDA and PI for analysis by flow cytometry. Histograms illustrate representative data and bar graphs show the increase (over vehicle control) in the percentage of PI-negative (viable) cells with positive DCF fluorescence in each sample. Bars represent the mean+/−SEM from three independent experiments. […] (B) Cells were treated with XB05 as described in part A. As a positive control for superoxide production, cells were treated with Antimycin A (10 μM) for 1 h. Cells were harvested and subjected to MitoSOX™ Red staining for analysis by flow cytometry as described in Methods. Histograms illustrate representative data and bar graphs show the mean+/−SEM for three independent experiments.\n(§2) Flow Cytometric Assays. Analyses were performed using a FACScalibur flow cytometer (BD Biosciences, Mountain View, Calif.) and FlowJo software (Tree Star, Inc., Ashland, Oreg.). Cells were treated as indicated in the figures and in the Brief Description of the Drawings. Cells were harvested by using TrypLE Cell Dissociation Reagent (Life Technologies). For cell death analyses, cells (adherent and detached cells) were stained with annexin-V-FITC and propidium iodide (PI) using the Apoptosis Detection Kit (BD Biosciences, San Jose, Calif.), according to the manufacturer's instructions. For cell-cycle distribution, cells were fixed, and stained with PI using the Cycle Test Plus kit (Becton Dickinson, Franklin Lakes, N.J.). For detection of γ-H2AX, cells were washed with PBS and fixed in 4% paraformaldehyde in PBS for 10 min at 37° C. Cells were then permeabilized in 90% methanol for 30 min on ice, blocked in 2% BSA (w/v in PBS) for 1 h, and incubated with γ-H2AX antibody or rabbit IgG isotype control (Santa Cruz, sc-2027) (0.3 μg/mL in 1% BSA) for 1 h. […] Cells were then washed twice with PBS, re-suspended at a density of 1×10^6 cells/mL in PBS and analyzed by flow cytometry."}, "Hs27 cells [3]": {"system": "Hs27 cells", "test": "MitoSOX Red mitochondrial superoxide, flow cytometry", "conditions": "Hs27, 1 μM, 8 h", "protocol": "as §1, §2"}, "U937 cells [4]": {"system": "U937 cells", "test": "MitoSOX Red mitochondrial superoxide, flow cytometry", "conditions": "U937, 1 μM, 8 h", "protocol": "as §1, §2"}, "A549 cells [5]": {"system": "A549 cells", "test": "Carboxy-H2DCFDA ROS detection, flow cytometry", "conditions": "A549, 2 μM, 8 h", "protocol": "as §1, §2"}, "Hs27 cells [6]": {"system": "Hs27 cells", "test": "Carboxy-H2DCFDA ROS detection, flow cytometry", "conditions": "Hs27, 1 μM, 8 h", "protocol": "as §1, §2"}, "U937 cells [7]": {"system": "U937 cells", "test": "Carboxy-H2DCFDA ROS detection, flow cytometry", "conditions": "U937, 1 μM, 8 h", "protocol": "as §1, §2"}, "A549 cells [8]": {"system": "A549 cells", "test": "Alkaline comet assay", "conditions": "A549, 72 h", "protocol": "(§3) FIG. 11: XB05 Induces DNA Damage in Malignant Cells. (A) Alkaline comet assays for detection of DNA damage for cells treated as indicated for 72 h. TBHP was a positive control for oxidative DNA damage. Decreased DNA fluorescence in nucleoid comet heads (arrows) and increased smearing of DNA into comet tails (asterisks) is indicated. Scale bar, 400 μm. Data shown are representative of at least two individual experiments for each cell line. (B) Western blot analysis for γ-H2AX and GAPDH (loading control) in whole cell extracts from cells treated with vehicle, UV irradiation (800 μJ, positive control for DSBs), or XB05 (1 μM for U937, 2 μM for A549) after 24 h. Images shown are representative of three individual experiments in each cell line. (C) Flow cytometric detection of γ-H2AX in cells treated as described in part B. Bar graph represents mean+/−SEM for 3 individual experiments in each cell line. Statistical comparison indicated significant differences between vehicle and XB05-treated groups in both cell lines (*p≦0.05).\n(§4) Comet Assays. Cells were washed once with ice cold PBS, harvested as described and re-suspended at 1×10^5 cells/mL in PBS. As a positive control, cells were incubated with 100 μM tert-butyl hydrogen peroxide (TBHP) for 30 mins (U937, A549) or 1 h (Hs27) at 4° C. prior to harvesting. Comet assays were performed using the CometAssay Kit (Trevigen, Gaithersburg, Md.) according to the manufacturer's instructions. Cells were visualized and digital images captured on an EVOSfI Digital Fluorescent Microscope equipped with a fluorescein light cube."}, "Hs27 cells [9]": {"system": "Hs27 cells", "test": "Alkaline comet assay", "conditions": "Hs27, 72 h", "protocol": "as §3, §4"}, "U937 cells [10]": {"system": "U937 cells", "test": "Alkaline comet assay", "conditions": "U937, 72 h", "protocol": "as §3, §4"}},
  "data": [
    {"smiles": "CCCCCC(O)C#CC(F)(F)Br", "note": "(stereo not shown) [XB05]", "values": [
      {"measurement": "cell death (trypan blue exclusion)", "setting": "A549 cells [1]", "value": "modest cell death"},
      {"measurement": "MitoSOX Red fluorescence vs vehicle", "setting": "A549 cells [2]", "value": "increase in MitoSOX™ Red fluorescence"},
      {"measurement": "MitoSOX Red fluorescence vs vehicle", "setting": "Hs27 cells [3]", "value": "not in Hs27 non-malignant fibroblasts"},
      {"measurement": "MitoSOX Red fluorescence vs vehicle", "setting": "U937 cells [4]", "value": "increase in MitoSOX™ Red fluorescence"},
      {"measurement": "levels of ROS (DCF-positive viable cells)", "setting": "A549 cells [5]", "value": "elevated"},
      {"measurement": "levels of ROS (DCF-positive viable cells)", "setting": "Hs27 cells [6]", "value": "elevated"},
      {"measurement": "levels of ROS (DCF-positive viable cells)", "setting": "U937 cells [7]", "value": "elevated"},
      {"measurement": "DNA damage (comet tails)", "setting": "A549 cells [8]", "value": "comet tails"},
      {"measurement": "DNA damage (comet tails)", "setting": "Hs27 cells [9]", "value": "no evidence of DNA damage"},
      {"measurement": "DNA damage (comet tails)", "setting": "U937 cells [10]", "value": "comet tails"}
    ]}
  ]
}
